# Where a name gives a salt, the structure may show the parent alone. Read-outs that look alike come from different tables or passages of the source.
# What was measured:
# [1] = target: T1, 14-3-3ζ:BAD-112-136F interactions (Homo sapiens, UniProt P63104); test: BRET sensor screen for disruption of 14-3-3ζ-Rluc8:BAD-112-136F-mCitrine in living NIH-3T3 cells; assay type: cell-based, murine; parameters: inhibition: dose or concentration left out as unconfirmed; details: for inhibition at 20 µM / inhibition: NIH3T3, 3 h, read-out: BRET reduction on NIH-3T3
# T1 construct: expressed in transfected cells; host or cells: NIH-3T3 fibroblasts, bi-directional pBI-CMV1 plasmid
# T1 sequence (P63104 1-245): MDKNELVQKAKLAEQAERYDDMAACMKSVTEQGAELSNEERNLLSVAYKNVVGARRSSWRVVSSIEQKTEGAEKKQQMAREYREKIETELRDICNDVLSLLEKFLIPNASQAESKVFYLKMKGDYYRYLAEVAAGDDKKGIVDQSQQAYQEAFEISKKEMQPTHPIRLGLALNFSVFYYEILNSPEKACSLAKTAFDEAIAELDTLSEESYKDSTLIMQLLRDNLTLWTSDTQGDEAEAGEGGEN
# Procedure: The Z’-score, which evaluates the robustness of an HTS assay readout, was calculated according to standard protocols. For the HTS, 384-well plates were coated with 100 μg/mL poly-L-ornithine (Sigma, Missouri, United States; #P3655) overnight at 37 °C, followed by rinsing with sterilized water. NIH-3T3 cells were transfected with the BRET sensor two days prior to experimentation, followed by replating onto the pre-coated 384-well plates at a density of 20,000 cells/well. After 24 h of incubation at 37 °C, growth media was replaced by Krebs buffer (pH 7.4).
# NIH-3T3 cells = test: Hoechst/propidium iodide cell death assay in NIH-3T3; assay type: cell-based; details: for cytotoxicity at 20 µM: Mus musculus, NIH3T3, 24 h, read-out: Percentage of cell death % 24h NIH3t3
# Source text: (§1) A high-content imaging system (PerkinElmer; Operetta CLS), was used to quantify cell death and apoptosis by calculating the number of propidium iodide-positive cells relative to Hoechst-positive cells, and the number of Annexin V-positive cells relative to Hoechst-positive cells, respectively.
# HT-29 cells = test: Hoechst/propidium iodide cell death assay in HT-29; assay type: cell-based, human; details: Homo sapiens
# Source text: as §1
# [2] = NIH-3T3 cells, hits from the primary screen
# [3] = HT-29, 24 h, read-out: Percentage of cell death % 24h HT-29
# [4] = HT-29, 48 h, read-out: Percentage of cell death % 48h, HT-29
# [5] = NIH-3T3 expressing BRET sensor, 20 µM, 3 h
# [6] = HT-29, 24 h, 20 µM, 24 h, read-out: Percentage of cell death % 24h HT-29
# [7] = HT-29, 48 h, HT-29, 48h, 20 μM, read-out: Percentage of cell death % 48h, HT-29
Structure (SMILES),"inhibition [1, 2]","inhibition at 20 µM [1, 5]",inhibition at 20 µM [1],"BRET reduction on NIH-3T3 [1, 2]",cytotoxicity at 20 µM (NIH-3T3 cells),"Percentage of cell death % 48h, NIH3T3 (NIH-3T3 cells)",cytotoxicity at 20 µM (HT-29 cells; [3]),cytotoxicity at 20 µM (HT-29 cells; [4]),"cytotoxicity at 20 µM (NIH-3T3 cells; 20 µM, 24 h)",cytotoxicity at 20 µM (HT-29 cells; [6]),cytotoxicity at 20 µM (HT-29 cells; [7])
COc1cc(C)c(/C=C/C(C)=C/C=C/C(C)=C/C(=O)O)c(C)c1C [Acitretin],,,31.9%,31.8517,0.791%,1.816%,0.862%,1.82%,,,
CC(C)(C)CC(C)(C)c1ccc(OCCOCC[N+](C)(C)Cc2ccccc2)cc1 [Benzethonium Chloride],,,,,51.9%,51.9198%,43.5%,90.4%,,,
C=C(c1ccc(C(=O)O)cc1)c1cc2c(cc1C)C(C)(C)CCC2(C)C [Bexarotene],29.5%,29.5%,,,,2.3561%,,,3.81%,0.535%,4.19%
C=C1/C(=C\C=C2/CCC[C@]3(C)[C@@H]([C@H](C)CCCC(C)(C)O)CC[C@@H]23)C[C@@H](O)C[C@@H]1O [Calcitriol],,,,,,1.321%,,,1.56%,0.461%,0.982%
C(=C\c1ccccc1)/CN1CCN(C(c2ccccc2)c2ccccc2)CC1 [Cinnarizine],,,,,,0.3398%,,,0.412%,0.381%,1.26%
CN(C)CCCN1c2ccccc2CCc2ccc(Cl)cc21 [Clomipramine HCl],27%,27%,,,,8.7601%,,,7.72%,0.662%,2.3%
Clc1ccccc1C(c1ccccc1)(c1ccccc1)n1ccnc1 [Clotrimazole],30.1%,30.1%,,,,1.657%,,,0.937%,0.234%,0.787%
"COc1cc2ncnc(Nc3ccc(F)c(Cl)c3)c2cc1NC(=O)/C=C/CN1CCCCC1 [Dacomitinib (PF299804, PF299), Dacomitinib]",26.7%,26.7%,,,,75.5856%,,,86.8%,22.7%,84.1%
CC/C(=C(/CC)c1ccc(O)cc1)c1ccc(O)cc1 [Diethylstilbestrol],28.3%,28.3%,,,,3.653%,,,11.2%,0.869%,2.76%
CN1CCN(c2ccc(C(=O)Nc3n[nH]c4ccc(Cc5cc(F)cc(F)c5)cc34)c(NC3CCOCC3)c2)CC1 [Entrectinib],56.8%,56.8%,,,,85.5203%,,,81.5%,58.1%,80.4%
Clc1ccc(C(Cn2ccnc2)OCc2ccc(Sc3ccccc3)cc2)c(Cl)c1 (stereo not shown) [Fenticonazole Nitrate],31.7%,31.7%,,,,1.538%,,,0.773%,0.786%,1.58%
Clc1ccc(CSC(Cn2ccnc2)c2ccc(Cl)cc2Cl)cc1 (stereo not shown) [Sulconazole Nitrate],,,,,,9.7879%,,,10.8%,7.98%,12.2%

# Now from value to compound, other results behind:
"inhibition [1, 2]","inhibition at 20 µM [1, 5]",Structure (SMILES),inhibition at 20 µM [1],"BRET reduction on NIH-3T3 [1, 2]",cytotoxicity at 20 µM (NIH-3T3 cells),"Percentage of cell death % 48h, NIH3T3 (NIH-3T3 cells)",cytotoxicity at 20 µM (HT-29 cells; [3]),cytotoxicity at 20 µM (HT-29 cells; [4]),"cytotoxicity at 20 µM (NIH-3T3 cells; 20 µM, 24 h)",cytotoxicity at 20 µM (HT-29 cells; [6]),cytotoxicity at 20 µM (HT-29 cells; [7])
26.6%,26.6%,C[C@@H](O[C@H]1OCCN(Cc2n[nH]c(=O)[nH]2)[C@H]1c1ccc(F)cc1)c1cc(C(F)(F)F)cc(C(F)(F)F)c1 [Aprepitant],,,,2.577%,,,1.15%,1.47%,3.76%
41.4%,41.4%,"C=C[C@@H]1C[C@]1(NC(=O)[C@@H]1C[C@@H](Oc2ncc(OC)c3ccc(Cl)cc23)CN1C(=O)[C@@H](NC(=O)OC(C)(C)C)C(C)(C)C)C(=O)NS(=O)(=O)C1CC1 [Asunaprevir (BMS-650032), Asunaprevir]",,,,2.12%,,,3.04%,1.15%,3.86%
32.1%,32.1%,c1ccc(-c2ccc(C(c3ccccc3)n3ccnc3)cc2)cc1 (stereo not shown) [Bifonazole],,,,0.5325%,,,0.428%,1.45%,2.62%
25.1%,25.1%,CCN1CCN(c2cc(-c3ccc(F)cc3)c3c(n2)CCCCCC3)CC1 [Blonanserin],,,,1.273%,,,1.45%,2.57%,15.5%
45.1%,45.1%,Clc1ccc(CCC(Cn2ccnc2)Sc2c(Cl)cccc2Cl)cc1 (stereo not shown) [Butoconazole nitrate],,,,1.36%,,,1.23%,1.75%,3.36%
31.7%,31.7%,C=C1/C(=C\C=C2/CCC[C@]3(C)[C@@H]([C@H](C)/C=C/[C@@H](O)C4CC4)CC[C@@H]23)C[C@@H](O)C[C@@H]1O [Calcipotriol],,,,2.028%,,,0.552%,0.559%,0.922%
44.9%,44.9%,CCOc1nc2cccc(C(=O)OC(C)OC(=O)OC3CCCCC3)c2n1Cc1ccc(-c2ccccc2-c2nnn[nH]2)cc1 (stereo not shown) [Candesartan Cilexetil],,,,2.478%,,,12.2%,1.16%,1.91%
39.9%,39.9%,"COc1cc2c(Oc3ccc4[nH]c(C)cc4c3F)ncnc2cc1OCCCN1CCCC1 [Cediranib (AZD217), Cediranib]",,,,55.3041%,,,76.9%,11.9%,83.5%
31.3%,31.3%,C[C@H](CCC(=O)O)[C@H]1CC[C@H]2[C@@H]3[C@H](O)C[C@@H]4C[C@H](O)CC[C@]4(C)[C@H]3CC[C@]12C [Chenodeoxycholic Acid],,,,0.2284%,,,0.372%,1.21%,2.27%
75.6%,75.6%,CN(C)c1ccc(C(=C2C=CC(=[N+](C)C)C=C2)c2ccc(N(C)C)cc2)cc1 [Crystal Violet],,,,91.1305%,,,94.3%,94.9%,95.4%
40.6%,40.6%,C#C[C@]1(O)CC[C@H]2[C@@H]3CCC4=CCCC[C@@H]4[C@H]3C(=C)C[C@@]21CC [Desogestrel],,,,8.012%,,,16.1%,1.59%,2.12%
48.3%,48.3%,Clc1ccc(COC(Cn2ccnc2)c2ccc(Cl)cc2Cl)cc1 (stereo not shown) [Econazole nitrate],,,,7.996%,,,14.2%,8.57%,13%
42.9%,42.9%,CC1(C)[C@@H](O)CC[C@]2(C)[C@H]3C(=O)C=C4[C@@H]5C[C@@](C)(C(=O)O)CC[C@]5(C)CC[C@@]4(C)[C@]3(C)CC[C@@H]12 [Enoxolone],,,,0.6522%,,,4.15%,0.697%,1.61%
27.6%,27.6%,CCOC(=O)C1=C(C)NC(C)=C(C(=O)OC)C1c1cccc(Cl)c1Cl (stereo not shown) [Felodipine],,,,43.2531%,,,6.69%,3.81%,6.71%

# Reference: PMC12603070, “A high-throughput screening approach to discover potential colorectal cancer chemotherapeutics: repurposing drugs to identify novel disruptors of 14-3-3 proteins” (Cell Death & Disease, 2025)
